Measured values from patent US4555513A, “1,2 Dihydro- and 1,2,3,4-tetrahydro quinolylacetic acids and analgesic use thereof” (priority 1982, dated 1985).
Where two headings read alike, the source gives them in different places.

Key:
[1] = Acute toxicity (oral, mortality after 72 hours); conditions: mouse, in vivo
Procedure: Groups of 10 male dd mice weighing some 18 g were orally administered the examined drugs and the number of death p 72 hours later was recorded.

dd mice [2] = experiment: Analgesic effects by a modified Haffner method; format: in vivo, mouse (dd mice); conditions: with morphine hydrochloride 2 mg/kg s.c.
Procedure: Group of 10 dd mice were orally administered the examined drugs and 30 minutes later 2 mg/kg of morphine hydrochloride, the threshold dose, was injected subcutaneously. At 15, 30, 45 and 60 minutes thereafter, the root of mouse's tail was squeezed with a Kocher's forceps.

dd mice [3] = experiment: Analgesic effects by acetic acid writhing test; format: in vivo, mouse (male dd mice)
Procedure: 30 minutes after the examined drug was orally given, 0.1 ml/10 g of 0.6% acetic acid solution was intraperitoneally administered to group of 10 male dd mice weighing some 18 g. The number of stretching was calculted during an observation period of 15 to 20 minutes after acetic acid treatment. The average inhibition rate of stretching among 8 animals was regarded as the inhibition rate of the drug, excluding 2 animals showing maximum and minimum numbers of stretching.

[4] = 800 mg/kg oral, 72 hours, read-out: Mortality
[5] = 400 mg/kg oral, 72 hours, read-out: Mortality

Compound	mortality at 72 h [1, 4] [%]	Analgesic effects (dd mice [2]; 100 mg/kg oral) [%]	Analgesic effects (dd mice [2]; 200 mg/kg oral) [%]	Analgesic effects (inhibition rate of stretching) (dd mice [3]; 50 mg/kg oral) [%]	Analgesic effects (inhibition rate of stretching) (dd mice [3]; 100 mg/kg oral) [%]	Analgesic effects (inhibition rate of stretching) (dd mice [3]; 150 mg/kg oral) [%]	mortality at 72 h [1, 5] [%]	mortality at 72 h ([1]; po, 600 mg/kg) [%]
Cc1c(N(C)C)c(=O)n(-c2ccccc2)n1C [Aminopyrine, reference compound]	100	30	35	14	47	60	–	–
CC(C(=O)O)c1cc(Cl)c2c(c1)C=CC(C)(C)N2 (stereo not drawn) [Compound 35, 2-(8-Chloro-1,2-dihydro-2,2-dimethylquinolin-6-yl)propionic acid]	20	35	50	37	52	68	0	–
CC(C(=O)O)c1cc(Cl)c2c(c1)CCC(C)(C)N2 (stereo not drawn) [Compound 36, 2-(8-Chloro-1,2,3,4-tetrahydro-2,2-dimethylquinolin-6-yl)propionic acid]	10	30	55	36	61	73	0	–
CCCCC1C(=O)N(c2ccccc2)N(c2ccccc2)C1=O [Phenylbutazone, reference compound]	–	–	–	–	–	–	–	100
